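Each compound was tested at five concentrations against cells in 96-well plates for 48 hours. At the GI50, growth is halved.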 Calls of active or inactive are those of the source. Cut-off read from the data, not from the text of the source: active = GI50 up to about 1.1 µM and inactive = higher.
Key:
Assay in all cases: inhibition of tumour cell growth, NCI panel, 48 h
[1] = system: OVCAR-8
[2] = system: DU-145
[3] = system: UACC-257
[4] = system: LOX IMVI
[5] = system: M14
[6] = system: SF-295
[7] = system: CCRF-CEM
[8] = system: SR
[9] = system: SK-MEL-28
[10] = system: HCC 2998
[11] = system: SF-539
[12] = system: NCI/ADR-RES
[13] = system: HL-60
[14] = system: ACHN
[15] = system: SNB-75
[16] = system: SW-620
[17] = system: KM12
[18] = system: PC-3
[19] = system: HOP-62
[20] = system: UO-31

SMILES | GI50 [1] | GI50 [2] | GI50 [3] | GI50 [4] | GI50 [5] | GI50 [6] | GI50 [7] | GI50 [8] | GI50 [9] | GI50 [10] | GI50 [11] | GI50 [12] | GI50 [13] | GI50 [14] | GI50 [15] | GI50 [16] | GI50 [17] | GI50 [18] | GI50 [19] | GI50 [20]
CC1=C(C(=O)N[C@@H](Cc2ccccc2)C(=O)O)N2C(=O)[C@@H](NC(=O)[C@@H](N)CC(C)C)[C@H]2SC1 | > 100 µM (inactive) | > 100 µM (inactive) | > 100 µM (inactive) | > 100 µM (inactive) | > 100 µM (inactive) | > 100 µM (inactive) | > 100 µM (inactive) | > 100 µM (inactive) | > 100 µM (inactive) | > 100 µM (inactive) | > 100 µM (inactive) | > 100 µM (inactive) | > 100 µM (inactive) | > 100 µM (inactive) | > 100 µM (inactive) | > 100 µM (inactive) | > 100 µM (inactive) | > 100 µM (inactive) |  | 
N=C(N)N/N=C(\c1ccc(Cl)cc1)C1CC1 | 20.7 µM (inactive) | 22.6 µM (inactive) | 14.5 µM (inactive) | 16.4 µM (inactive) | 15.4 µM (inactive) | 21.3 µM (inactive) |  | 11.4 µM (inactive) | 19.3 µM (inactive) | 7 µM (inactive) | 17.2 µM (inactive) | 25.4 µM (inactive) |  | 21.8 µM (inactive) | 22.2 µM (inactive) | 18.4 µM (inactive) | 18.5 µM (inactive) | 16.2 µM (inactive) | 19 µM (inactive) | 24.6 µM (inactive)
C/C=C(/C)C(=O)O[C@@H]1c2c(C)coc2C[C@H]2CC[C@H](O)[C@H](C)[C@]21C | 42.5 µM (inactive) | > 100 µM (inactive) | 34.2 µM (inactive) | 49.4 µM (inactive) | 54.1 µM (inactive) | > 100 µM (inactive) | 36.7 µM (inactive) | 49.9 µM (inactive) | 44.8 µM (inactive) | > 100 µM (inactive) | 31.9 µM (inactive) | 23.1 µM (inactive) | 34.5 µM (inactive) | 36.9 µM (inactive) |  | 24 µM (inactive) | 46.2 µM (inactive) | 97.7 µM (inactive) | > 100 µM (inactive) | 68.2 µM (inactive)
O=C(O)CCCCCNC(=O)CCC(CN(CC(=O)OCc1ccccc1)CC(=O)OCc1ccccc1)N(CC(=O)OCc1ccccc1)CC(=O)OCc1ccccc1 (centres undefined) | 16.5 µM (inactive) | 19.5 µM (inactive) | 18.8 µM (inactive) | 19.2 µM (inactive) | 17.5 µM (inactive) | 17.3 µM (inactive) | 16 µM (inactive) | 20.9 µM (inactive) | 19 µM (inactive) | 15.2 µM (inactive) | 20.7 µM (inactive) | 20.3 µM (inactive) | 15 µM (inactive) | 18.1 µM (inactive) |  | 22.1 µM (inactive) | 17.6 µM (inactive) | 17 µM (inactive) | 20.1 µM (inactive) | 15.8 µM (inactive)
CCOC(=O)C1(C(=O)OCC)COS(=O)OC1 | 45.1 µM (inactive) | > 100 µM (inactive) | > 100 µM (inactive) | 13.2 µM (inactive) | > 100 µM (inactive) | > 100 µM (inactive) | 10.6 µM (inactive) | 17.8 µM (inactive) | 35.1 µM (inactive) | 47.6 µM (inactive) |  | 40 µM (inactive) |  | 32.6 µM (inactive) | 79.1 µM (inactive) | 18.6 µM (inactive) | 28.7 µM (inactive) | > 100 µM (inactive) |  | 70.3 µM (inactive)
Cc1ccc(C2=Nc3c(N)nc(N)nc3NC(c3ccccc3)C2)cc1 (centres undefined) | 13.1 µM (inactive) | 14.7 µM (inactive) | 13.5 µM (inactive) | 10.1 µM (inactive) | 6.4 µM (inactive) |  | 7.83 µM (inactive) | 3.56 µM (inactive) | 14.4 µM (inactive) | 4.44 µM (inactive) | 12 µM (inactive) | 3.97 µM (inactive) |  | 15.4 µM (inactive) | 11.2 µM (inactive) | 4.02 µM (inactive) |  | 10.4 µM (inactive) | 9.55 µM (inactive) | 11.5 µM (inactive)
O=C(O)C(CCc1ccccn1)c1ccccc1 (centres undefined) | > 100 µM (inactive) | > 100 µM (inactive) | > 100 µM (inactive) | > 100 µM (inactive) | > 100 µM (inactive) | > 100 µM (inactive) |  | > 100 µM (inactive) | > 100 µM (inactive) | > 100 µM (inactive) | > 100 µM (inactive) | > 100 µM (inactive) | 1 µM (active) | > 100 µM (inactive) | > 100 µM (inactive) | > 100 µM (inactive) | > 100 µM (inactive) | > 100 µM (inactive) | > 100 µM (inactive) | > 100 µM (inactive)
NC(CCCCP(=O)(O)O)C(=O)O (centres undefined) | > 100 µM (inactive) | > 100 µM (inactive) | > 100 µM (inactive) | > 100 µM (inactive) | > 100 µM (inactive) | > 100 µM (inactive) | > 100 µM (inactive) | > 100 µM (inactive) | > 100 µM (inactive) | > 100 µM (inactive) | > 100 µM (inactive) | > 100 µM (inactive) | > 100 µM (inactive) | > 100 µM (inactive) | > 100 µM (inactive) | > 100 µM (inactive) | > 100 µM (inactive) | > 100 µM (inactive) |  | > 100 µM (inactive)
CC#CC#C/C=C1/O[C@]2(CCC(OC(=O)CC(C)C)CO2)[C@@H]2O[C@H]12 (some centres undefined) | 32.4 µM (inactive) | 42.5 µM (inactive) | 30.3 µM (inactive) | 16.2 µM (inactive) | 21.9 µM (inactive) |  | 7.69 µM (inactive) | 28.1 µM (inactive) |  | 19.5 µM (inactive) |  | 28.4 µM (inactive) | 19.7 µM (inactive) | 21 µM (inactive) | 78.5 µM (inactive) | 19.2 µM (inactive) | 27 µM (inactive) | 23.5 µM (inactive) | 42.7 µM (inactive) | 18.9 µM (inactive)
CCc1nnc(-n2c(C)nc3cc(Cl)ccc3c2=O)s1 | 51.4 µM (inactive) | 41.6 µM (inactive) | 39.4 µM (inactive) | 39.1 µM (inactive) | 38.7 µM (inactive) | 21.4 µM (inactive) | 19.6 µM (inactive) | 34.5 µM (inactive) | 46.6 µM (inactive) | 49.8 µM (inactive) |  | 39.6 µM (inactive) | 41 µM (inactive) | 33.8 µM (inactive) | 34.9 µM (inactive) | 34.8 µM (inactive) | 38.5 µM (inactive) | 52.8 µM (inactive) | 45.4 µM (inactive) | 31.6 µM (inactive)
Cc1ccc(C)c(C(=N)c2ccccc2Cc2ccccc2)c1 | 31.7 µM (inactive) | 22.9 µM (inactive) | 22.9 µM (inactive) | 17.3 µM (inactive) | 24.2 µM (inactive) | 20 µM (inactive) |  | 19.2 µM (inactive) | 26.4 µM (inactive) | 15.9 µM (inactive) | 17.9 µM (inactive) | 25.4 µM (inactive) | 18.5 µM (inactive) | 18.2 µM (inactive) |  | 31.2 µM (inactive) | 20.2 µM (inactive) | 26.7 µM (inactive) | 24.3 µM (inactive) | 27.3 µM (inactive)
Cc1cc(-c2nc3cc(F)c(F)cc3s2)ccc1N | > 45.4 µM (inactive) | > 67.6 µM (inactive) | > 73.1 µM (inactive) | > 82.4 µM (inactive) | > 55.2 µM (inactive) | > 48.2 µM (inactive) | > 35.6 µM (inactive) | > 100 µM (inactive) | > 100 µM (inactive) | > 42.4 µM (inactive) |  | > 59.3 µM (inactive) | > 41.6 µM (inactive) | > 79.1 µM (inactive) | 51.9 µM (inactive) | > 60.5 µM (inactive) | > 69.2 µM (inactive) | > 52.5 µM (inactive) | 39.7 µM (inactive) | > 59.4 µM (inactive)
CC12CCC(Br)C(C)(C)C1CC=C1C(=O)OCC1O2 (centres undefined) | 11.6 µM (inactive) | 12 µM (inactive) | 12.4 µM (inactive) | 9.57 µM (inactive) | 20.5 µM (inactive) | 15.8 µM (inactive) |  | 5.15 µM (inactive) | 14.8 µM (inactive) | 12.1 µM (inactive) | 60.8 µM (inactive) | 20.4 µM (inactive) | 1.84 µM (inactive) | 12.5 µM (inactive) | 15.5 µM (inactive) | 16.7 µM (inactive) | 14.2 µM (inactive) | 9.89 µM (inactive) |  | 8.13 µM (inactive)
CC(=O)CCC[C@H](C)[C@@H](O)[C@@H]1O[C@H]([C@@]2(C)CCC(=O)O2)C[C@H]1C(=O)O | > 100 µM (inactive) | > 100 µM (inactive) | > 100 µM (inactive) | > 100 µM (inactive) |  | > 100 µM (inactive) | > 100 µM (inactive) | 37.2 µM (inactive) | > 100 µM (inactive) | > 100 µM (inactive) | > 100 µM (inactive) | > 100 µM (inactive) |  | > 100 µM (inactive) | > 100 µM (inactive) | > 100 µM (inactive) | > 100 µM (inactive) | > 100 µM (inactive) | > 100 µM (inactive) | > 100 µM (inactive)
CC(C)=CCC[C@@H](C)C1=C(O)C(=O)C(C)=C(Nc2ccccc2F)C1=O | 7.19 µM (inactive) | 23.9 µM (inactive) | 21.9 µM (inactive) | 16.4 µM (inactive) | 16.7 µM (inactive) | 3.82 µM (inactive) | 2.39 µM (inactive) | 28.1 µM (inactive) | 38.6 µM (inactive) | 48.1 µM (inactive) |  | 3.49 µM (inactive) | 2.28 µM (inactive) | 13.8 µM (inactive) | 22.1 µM (inactive) | 23.8 µM (inactive) | 15.5 µM (inactive) | 12.3 µM (inactive) | 11.6 µM (inactive) | 12.9 µM (inactive)

Source: ChEMBL document CHEMBL1201862, “PubChem BioAssay data set” (2004)
